# Laboratory results as given in patent US9108939B2, “(1, 1, 1,3,3,3-hexafluoro-2 hydroxypropan-2-yl) phenyl derivative, pharmaceutical compositions thereof and their use for the treatment of atherosclerosis” (Merck Sharp & Dohme B.V., priority 2009, dated 2015).
# Target: T1, recombinant human LXRβ-LBD-GST (Homo sapiens, UniProt P55055)
# T1 construct: The LBD of LXRα or LXRβ was amplified by PCR and sub-cloned into the prokaryotic expression vector pGEX-4T-1; made in house; host or cells: E. coli
# T1 sequence (P55055 222-460 limits assumed): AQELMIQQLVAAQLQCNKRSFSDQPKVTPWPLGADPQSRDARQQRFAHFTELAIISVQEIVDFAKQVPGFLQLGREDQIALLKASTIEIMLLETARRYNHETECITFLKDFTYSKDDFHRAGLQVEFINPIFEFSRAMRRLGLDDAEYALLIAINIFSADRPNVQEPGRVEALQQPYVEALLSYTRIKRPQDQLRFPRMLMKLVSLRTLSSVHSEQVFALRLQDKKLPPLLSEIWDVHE
# Assay: Radioligand competition binding scintillation proximity assay (SpA), LXRβ
# Conditions: not given
# From the text: Radioligand Competition Binding Scintillation Proximity Assay (SpA) Using Recombinant Human LXRα or LXRβ Protein
# These assays utilise the purified ligand binding domain (LBD) of Liver X Receptor alpha (LXRα) or Liver X Receptor beta (LXRβ) fused to […] (GST) tagged protein (LXRα-LBD-GST and LXRβ-LBD-GST respectively) and scintillation proximity assay (SpA) technology to determine binding affinities (pKi) of compounds at the ligand binding domain (LBD) of the human nuclear hormone receptor LXRα or LXRβ.
# Preparation of Recombinant Human LXRα and LXRβ
# Human LXRα and LXRβ were expressed as GST-fusion proteins in E. coli.
# The LBD of LXRα or LXRβ was amplified by PCR and sub-cloned into the prokaryotic expression vector pGEX-4T-1 (GE Healthcare). […] E. coli, containing either the LXRα or LXRβ pGEX-4T-1 plasmid, were propagated, induced, and harvested by centrifugation. The bacterial pellets were resuspended in lysis buffer containing 50 mM tris(Hydroxymethyl)aminomethane (TRIS)-pH 8.0, 100 mM Sodium Chloride (NaCl), 1 mM ethylenediaminetetraacetic acid (EDTA) and one tablet of Proteinase inhibitor cocktail complete/EDTA free (Roche) (per 50 mL of buffer). The mixtures were sonicated on ice with a Branson sonifier. The suspensions were centrifuged and dithiothreitol (DTT) added to the supernatants to obtain a final concentration of 25 mM. […] Proteins were stored in 20 mM N2-hydroxyethylpiperazine-N′-2-ethanesulfonic acid (HEPES), 2 mM DTT with 10% glycerol at −80° C.
# Binding to LXRα or LXRβ LBDs
# For LXRα or LXRβ assays, an aliquot of recombinant human LXRα-LBD-GST or LXRβ-LBD-GST protein was diluted to 0.5 μg/mL and incubated in a final volume of 100 μL SpA buffer (10 mM potassium hydrogen phosphate anhydrous [K2HPO4], 10 mM potassium Phosphate Monobasic [KH2PO4], 2 mM EDTA pH 7.1, 50 mM NaCl, 1 mM DTT, 2 mM 3-[(3-cholamidopropyl)dimethylammonio]-1-propanesulfonate (CHAPS)) containing Protein-A coupled scintillant filled YtSi SpA beads (GE Healthcare), to a final concentration of 1 mg/mL and Goat anti-GST antibody (GE Healthcare) to a final concentration of 5 μg/mL. […] Test compounds were assayed over a concentration range. After incubation, the assay plates were read on a Packard TopCount.
row,Ki [nM],Compound
1,5.89,"O=C(Nc1ccc(OC2CCN(Cc3ccc(C(O)(C(F)(F)F)C(F)(F)F)cc3)CC2)cc1)Nc1ccnnc1 [Example 1F, 1-(4-(1-(4-(1,1,1,3,3,3-Hexafluoro-2-hydroxypropan-2-yl)benzyl)piperidin-4-yloxy)phenyl)-3-(pyridazin-4-yl)urea]"

# Same assay, conditions: read-out: LXRβ pKi (converted)
row,Ki [nM],Compound
1,24.5,"CC(C)(O)CNC(=O)Nc1cc(F)c(CC2CCN(Cc3ccc(C(O)(C(F)(F)F)C(F)(F)F)cc3)CC2)cc1F [Example 16, 1-(2,5-Difluoro-4-((1-(4-(1,1,1,3,3,3-hexafluoro-2-hydroxypropan-2-yl)benzyl)piperidin-4-yl)methyl)phenyl)-3-(2-hydroxy-2-methylpropyl)urea]"
2,21.9,"O=C(Nc1ccc(CC2CCN(Cc3ccc(C(O)(C(F)(F)F)C(F)(F)F)cc3)CC2)cc1F)NC1COC1 [Example 12AE, 1-(2-Fluoro-4-((1-(4-(1,1,1,3,3,3-hexafluoro-2-hydroxypropan-2-yl)benzyl)piperidin-4-yl)methyl)phenyl)-3-(oxetan-3-yl)urea]"
3,4.9,"O=C(Nc1cnoc1)Nc1ccc(CC2CCN(Cc3ccc(C(O)(C(F)(F)F)C(F)(F)F)cc3)CC2)cc1F [Example 12D, 1-(2-Fluoro-4-((1-(4-(1,1,1,3,3,3-hexafluoro-2-hydroxypropan-2-yl)benzyl)piperidin-4-yl)methyl)phenyl)-3-(isoxazol-4-yl)urea]"
4,2,"O=C(Nc1ccc(OC2CCN(Cc3ccc(C(O)(C(F)(F)F)C(F)(F)F)cc3)CC2)cc1)Nc1ccncc1F [Example 2C, 1-(3-Fluoropyridin-4-yl)-3-(4-(1-(4-(1,1,1,3,3,3-hexafluoro-2-hydroxypropan-2-yl)benzyl)piperidin-4-yloxy)phenyl)urea]"
5,17,"O=C(Nc1ccc(CC2CCN(Cc3ccc(C(O)(C(F)(F)F)C(F)(F)F)cc3)CC2)cc1F)N[C@H]1CCOC1 [Example 12F, (S)-1-(2-Fluoro-4-((1-(4-(1,1,1,3,3,3-hexafluoro-2-hydroxypropan-2-yl)benzyl)piperidin-4-yl)methyl)phenyl)-3-(tetrahydrofuran-3-yl)urea]"
6,2.04,"O=C(Nc1ccncc1)Nc1ccc(OC2CCN(Cc3ccc(C(O)(C(F)(F)F)C(F)(F)F)cc3)CC2)cc1 [Example 2, 1-(4-(1-(4-(1,1,1,3,3,3-Hexafluoro-2-hydroxypropan-2-yl)benzyl)piperidin-4-yloxy)phenyl)-3-(pyridin-4-yl)urea]"
7,5.5,"O=C(Nc1ccncc1)Nc1ccc(CC2CCN(Cc3ccc(C(O)(C(F)(F)F)C(F)(F)F)cc3)CC2)cc1F [Example 13, 1-(2-Fluoro-4-((1-(4-(1,1,1,3,3,3-hexafluoro-2-hydroxypropan-2-yl)benzyl)piperidin-4-yl)methyl)phenyl)-3-(pyridin-4-yl)urea]"
8,3.02,"O=C(Nc1ccc(OC2CCN(Cc3ccc(C(O)(C(F)(F)F)C(F)(F)F)cc3)CC2)cc1)Nc1ccncn1 [Example 2E, 1-(4-(1-(4-(1,1,1,3,3,3-Hexafluoro-2-hydroxypropan-2-yl)benzyl)piperidin-4-yloxy)phenyl)-3-(pyrimidin-4-yl)urea]"
9,2.75,"O=C(NCC(O)C(F)(F)F)Nc1ccc(CC2CCN(Cc3ccc(C(O)(C(F)(F)F)C(F)(F)F)cc3)CC2)cc1F (centres unmarked) [Example 12I, 1-(2-Fluoro-4-((1-(4-(1,1,1,3,3,3-hexafluoro-2-hydroxypropan-2-yl)benzyl)piperidin-4-yl)methyl)phenyl)-3-(3,3,3-trifluoro-2-hydroxypropyl)urea]"
10,5.75,"CC(O)(CNC(=O)Nc1ccc(CC2CCN(Cc3ccc(C(O)(C(F)(F)F)C(F)(F)F)cc3)CC2)cc1F)C(F)(F)F (centres unmarked) [Example 12AA, 1-(2-Fluoro-4-((1-(4-(1,1,1,3,3,3-hexafluoro-2-hydroxypropan-2-yl)benzyl)piperidin-4-yl)methyl)phenyl)-3-(3,3,3-trifluoro-2-hydroxy-2-methylpropyl)urea]"
11,7.94,"CC(O)(CNC(=O)Nc1cc(F)c(CC2CCN(Cc3ccc(C(O)(C(F)(F)F)C(F)(F)F)cc3)CC2)cc1F)C(F)(F)F (centres unmarked) [Example 16B, 1-(2,5-Difluoro-4-((1-(4-(1,1,1,3,3,3-hexafluoro-2-hydroxypropan-2-yl)benzyl)piperidin-4-yl)methyl)phenyl)-3-(3,3,3-trifluoro-2-hydroxy-2-methylpropyl)urea]"
12,9.12,"O=C(Nc1ccc(CC2CCN(Cc3ccc(C(O)(C(F)(F)F)C(F)(F)F)cc3)CC2)cc1)NC1COC1 [Example 6P, 1-(4-((1-(4-(1,1,1,3,3,3-Hexafluoro-2-hydroxypropan-2-yl)benzyl)piperidin-4-yl)methyl)phenyl)-3-(oxetan-3-yl)urea]"
13,7.94,"O=C(Nc1ccncc1)Nc1ccc(CC2CCN(Cc3ccc(C(O)(C(F)(F)F)C(F)(F)F)cc3)CC2)cc1 [Example 7, 1-(4-((1-(4-(1,1,1,3,3,3-Hexafluoro-2-hydroxypropan-2-yl)benzyl)piperidin-4-yl)methyl)phenyl)-3-(pyridin-4-yl)urea]"
14,17,"CC(C)(O)CNC(=O)Nc1ccc(CC2CCN(Cc3ccc(C(O)(C(F)(F)F)C(F)(F)F)cc3)CC2)cc1F [Example 12AC, 1-(2-Fluoro-4-((1-(4-(1,1,1,3,3,3-hexafluoro-2-hydroxypropan-2-yl)benzyl)piperidin-4-yl)methyl)phenyl)-3-(2-hydroxy-2-methylpropyl)urea]"
15,4.27,"O=C(Nc1ccc(CC2CCN(Cc3ccc(C(O)(C(F)(F)F)C(F)(F)F)cc3)CC2)cc1)Nc1ccncn1 [Example 7B, 1-(4-((1-(4-(1,1,1,3,3,3-Hexafluoro-2-hydroxypropan-2-yl)benzyl)piperidin-4-yl)methyl)phenyl)-3-(pyrimidin-4-yl)urea]"
16,7.41,"O=C(Nc1ccc(CC2CCN(Cc3ccc(C(O)(C(F)(F)F)C(F)(F)F)cc3)CC2)cc1)Nc1ccncc1F [Example 6S, 1-(3-Fluoropyridin-4-yl)-3-(4-((1-(4-(1,1,1,3,3,3-hexafluoro-2-hydroxypropan-2-yl)benzyl)piperidin-4-yl)methyl)phenyl)urea]"
17,9.55,"Cc1cc(NC(=O)Nc2ccc(CC3CCN(Cc4ccc(C(O)(C(F)(F)F)C(F)(F)F)cc4)CC3)cc2F)no1 [Example 12E, 1-(2-Fluoro-4-((1-(4-(1,1,1,3,3,3-hexafluoro-2-hydroxypropan-2-yl)benzyl)piperidin-4-yl)methyl)phenyl)-3-(5-methylisoxazol-3-yl)urea]"
18,11.5,"CC(C)(O)CNC(=O)Nc1ccc(OC2CCN(Cc3ccc(C(O)(C(F)(F)F)C(F)(F)F)cc3)CC2)cc1 [Example 1D, 1-(4-(1-(4-(1,1,1,3,3,3-Hexafluoro-2-hydroxypropan-2-yl)benzyl)piperidin-4-yloxy)phenyl)-3-(2-hydroxy-2-methylpropyl)urea]"
19,9.77,"O=C(Nc1ccncn1)Nc1ccc(CC2CCN(Cc3ccc(C(O)(C(F)(F)F)C(F)(F)F)cc3)CC2)cc1F [Example 13B, 1-(2-Fluoro-4-((1-(4-(1,1,1,3,3,3-hexafluoro-2-hydroxypropan-2-yl)benzyl)piperidin-4-yl)methyl)phenyl)-3-(pyrimidin-4-yl)urea]"
20,21.9,"O=C(Nc1ccc(CC2CCN(Cc3ccc(C(O)(C(F)(F)F)C(F)(F)F)cc3)CC2)cc1F)NC1CCOCC1 [Example 12AG, 1-(2-Fluoro-4-((1-(4-(1,1,1,3,3,3-hexafluoro-2-hydroxypropan-2-yl)benzyl)piperidin-4-yl)methyl)phenyl)-3-(tetrahydro-2H-pyran-4-yl)urea]"
21,6.03,"CC(C)(O)CNC(=O)Nc1ccc(CC2CCN(Cc3ccc(C(O)(C(F)(F)F)C(F)(F)F)cc3)CC2)cc1Cl [Example 17, 1-(2-Chloro-4-((1-(4-(1,1,1,3,3,3-hexafluoro-2-hydroxypropan-2-yl)benzyl)piperidin-4-yl)methyl)phenyl)-3-(2-hydroxy-2-methylpropyl)urea]"
22,9.77,"O=C(Nc1ccc(OC2CCN(Cc3ccc(C(O)(C(F)(F)F)C(F)(F)F)cc3)CC2)cc1)NC1CCOCC1 [Example 1C, 1-(4-(1-(4-(1,1,1,3,3,3-Hexafluoro-2-hydroxypropan-2-yl)benzyl)piperidin-4-yloxy)phenyl)-3-(tetrahydro-2H-pyran-4-yl)urea]"
